Experiment [1] has as its system P. aeruginosa. Briefly: Checkerboard synergy assay (FICI) with antibiotics against P. aeruginosa. In kind it is cell-based, Pseudomonas aeruginosa. The note with it: for Antibiotic MIC (single agent): P. aeruginosa strain AR-769; for Antibiotic FIC / Antibiotic MIC (combo): P. aeruginosa strain AR-769, in combination with GN370; for Antibiotic MIC (combo): in µg/mL. As to the method: Any known method to assess MIC may be used.
Checkerboards are constructed by first preparing columns of e.g., a 96-well polypropylene microtiter plate, wherein each well has the same amount of antibiotic diluted 2-fold along the horizontal axis. […] Bacteria are added to the drug combinations at concentrations of 1×10^5 […] in CAA, for example, with or without human serum or pulmonary surfactant. […] Summation fractional inhibitory concentrations (ΣFICs) are calculated for each drug and the minimum ΣFIC value (ΣFICmin) is used to determine the effect of the Chp peptide/antibiotic combination.
The synergy of GN370 with meropenem was evaluated against 3 different strains of P. aeruginosa and three different strains of B. cenocepacia.
GN370 was further tested in combination with up to seven additional antibiotics (in addition to meropenem) against a variety of bacterial strains, including P. aeruginosa, A. baumannii, E. coli, E. cloacae, and K. pneumoniae. GN370 and the subject antibiotics were tested in a checkerboard assay format, and FICI values were determined, wherein ≤0.5 indicates synergy, >0.5-≤1 indicates additive; and >1 indicates indifferent.

Experiment [2] concerns M. intracellulare. Briefly: MIC against M. intracellulare. The class given is cell-based, Mycobacterium intracellulare. The note with it: M. intracellulare (ATCC 13950); CAAT media.
The subject of experiment [3] is M. scrofulaceum. Briefly: MIC against M. scrofulaceum. The class given is cell-based, Mycobacterium scrofulaceum. The conditions noted are these: M. scrofulaceum (ATCC 19981); CAAT media.
Experiment [4] has as its system M. kansasii. The experiment can be described thus: MIC against M. kansasii. The class given is cell-based, Mycobacterium kansasii. The note with it: M. kansasi (ATCC 12478); CAAT media.
Experiment [5] concerns M. smegmatis. The experiment can be described thus: MIC against M. smegmatis. In kind it is cell-based, Mycobacterium smegmatis. The note with it: M. smegmatis (MC 155); CAAT media.
For experiment [6], the system named is M. avium. Briefly: MIC against M. avium. In kind it is cell-based, Mycobacterium avium. The note with it: M. avium (ATCC 700898); CAAT media.
The test system of experiment [7] is M. tuberculosis. The class given is cell-based, Mycobacterium tuberculosis. The conditions noted are these: M. tuberculosis (ATCC 35817); (ADC, T) media.
Experiment [8] relates to M. fortuitum. Briefly: MIC against M. fortuitum. In kind it is cell-based, Mycobacterium fortuitum. The conditions noted are these: M. fortuitum (ATCC 6841); CAAT media.

The values that follow come from patent US20240181022A1, “AMURINS LYSINS, AND LYSIN-ANTIMICROBIAL PEPTIDE (AMP) CONSTRUCTS ACTIVE AGAINST GRAM-NEGATIVE BACTERIA” (priority 2021, published 2024).

Values joined by “and” are separate entries in the source; they are usually repeats but may differ in a detail not shown here. Equal entries are not always repeated. Where no end group is shown, it is not given here. [ ]: non-standard residue; d: D form.

For the molecule `CO/N=C(\C(=O)N[C@@H]1C(=O)N2C(C(=O)[O-])=C(C[N+]3(C)CCCC3)CS[C@H]12)c1csc(N)n1` [Cefepime], in experiment [1], the Antibiotic MIC (single agent) came out at 256 µg/mL; the “Antibiotic FIC” value was 0.25 and 0.125; the “Antibiotic MIC (combo)” value is 64 and 32.

With `CC(C)(O/N=C(\C(=O)N[C@@H]1C(=O)N2C(C(=O)[O-])=C(C[n+]3ccccc3)CS[C@H]12)c1csc(N)n1)C(=O)O` [Ceftazidime], in experiment [1], the Antibiotic MIC (single agent) is 512 µg/mL, the “Antibiotic FIC” value amounted to 1 and the “Antibiotic MIC (combo)” value turned out to be 512.

Turning to “AGT915: SEQ ID NO: 63, Marine gokushovirus (MRRYNVNKGKSAKKFRKQVSKTKVANLRSNPMRGGWRL; listed as Marine gokushovirus)”, the MIC is over 64 µg/mL in experiment [2]; over 64 µg/mL in experiment [3]; 1 µg/mL in experiment [4]; 1 µg/mL in experiment [5]; over 64 Tg/mL in experiment [6]; 4 µg/mL in experiment [7]. This molecule yielded an MIC in experiment [8] of 1 µg/mL.

With “ALCES1: SEQ ID NO: 59, Alces alces faeces associated microvirus (MAKKIRNKARDRRIFTRTASRMHKANRTPRFMRGGIRL; Alces alces faeces associated microvirus MP12 5423)”, the MIC turned out to be 2 µg/mL in experiment [2]; 2 µg/mL in experiment [3]; 2 µg/mL in experiment [4]; 2 µg/mL in experiment [5]; 8 Tg/mL in experiment [6]; 8 µg/mL in experiment [7]. In experiment [8], this molecule had an MIC of 4 µg/mL.

“AVQ206: SEQ ID NO: 60, Gokushovirinae environmental samples (MRRKKMSRGKSKKLFRRTAKRVHRKNLRARPMRGGIRM)”: the MIC was 4 µg/mL in experiment [2]; 4 µg/mL in experiment [3]; 2 µg/mL in experiment [4]; 16 µg/mL in experiment [5]; 1 Tg/mL in experiment [6]; 8 µg/mL in experiment [7]. In experiment [8], this molecule yielded an MIC of 2 µg/mL.

“Chp1: Chp peptide, SEQ ID NO: 1, Phage Chp1 (MVRRRRLRRRISRRIFRRTVARVGRRRRSFRGGIRF; Chlamydia virus Chp1)”: the MIC in experiment [2] worked out at 4 µg/mL; in experiment [3], 4 µg/mL; in experiment [4], 4 µg/mL; in experiment [5] it was 16 µg/mL; in experiment [6], 4 Tg/mL; in experiment [7] it was 32 µg/mL. In addition, the MIC in experiment [8] was 16 µg/mL.

For “Chp4: Chp peptide, SEQ ID NO: 4, Phage 4 (MARRYRLSRRRSRRLFSRTALRMHRRNRLRRIMRGGIRF; Chlamydia phage 4)”, the MIC in experiment [2] was 1 µg/mL; in experiment [3], 2 µg/mL; in experiment [4] it was over 0.125 µg/mL; in experiment [5], 4 µg/mL; in experiment [6] it was 1 Tg/mL; in experiment [7] it was 16 µg/mL. The molecule also showed an MIC in experiment [8] of 4 µg/mL.

Turning to “Chp8: Chp peptide, SEQ ID NO: 8 (MSKKRSRMSRRRSKKLFSKTALRTKSVNTRPPMRGGFRF; listed as Chlamydia trachomatis)”, the MIC in experiment [2] worked out at 4 µg/mL; in experiment [3] it was 4 µg/mL; in experiment [4], 4 µg/mL; in experiment [5] it was 8 µg/mL; in experiment [6], 8 Tg/mL; in experiment [7] it was 8 µg/mL. The molecule also came in with an MIC in experiment [8] of 2 µg/mL.

Regarding “Chp9: Chp peptide, SEQ ID NO: 9 (MSLRRHKLSRKASKRIFRKGASRTKTLNTRATPMRGGFRI; listed as Chlamydia trachomatis)”, the MIC in experiment [2] was 4 µg/mL; in experiment [3], 8 µg/mL; in experiment [4], 8 µg/mL; in experiment [5], 8 µg/mL; in experiment [6], over 64 Tg/mL; in experiment [7] it was 8 µg/mL. The molecule also showed an MIC in experiment [8] of 4 µg/mL.

In the case of “Chp10: Chp peptide, SEQ ID NO: 10 (MKRRKLSKKKSRKIFTRGAVNVKKRNLRARPMRGGFRI; listed as Chlamydia trachomatis)”, the MIC came out at 0.5 µg/mL in experiment [2]; 0.5 µg/mL in experiment [3]; 4 µg/mL in experiment [4]; 1 µg/mL in experiment [5]; 0.5 Tg/mL in experiment [6]; 8 µg/mL in experiment [7]. In experiment [8], this molecule displayed an MIC of 1 µg/mL.

Turning to “Ecp2: SEQ ID NO: 18, hypothetical protein (E. coli) (MARSRRRMSKRSSRRSFRKYAKSHKKNFKARSMRGGIRL; listed as Escherichia coli)”, the MIC in experiment [2] was 8 µg/mL; in experiment [3] it was 4 µg/mL; in experiment [4] it was 2 µg/mL; in experiment [5] it was 8 µg/mL; in experiment [6], 2 Tg/mL; in experiment [7] it was 4 µg/mL. This molecule also had an MIC in experiment [8] of 4 µg/mL.

Turning to “Ecp3-M1: Modified variant of Ecp3, SEQ ID NO: 100 (MA[dR]S[dR][dR][dR]MS[dK][dR]SS[dR][dR]SF[dR][dK]YA[dK]TH[dK][dK]NF[dK]A[dR]SM[dR]GGI[dR]L)”, the MIC in experiment [2] was 8 µg/mL; in experiment [3], 2 µg/mL; in experiment [4], 2 µg/mL; in experiment [5], 1 µg/mL; in experiment [6], 0.5 Tg/mL; in experiment [7], 8 µg/mL. This molecule displayed an MIC in experiment [8] of 8 µg/mL.

Consider “Ecp3: SEQ ID NO: 55, nonstructural protein (Escherichia) (MARSRRRMSKRSSRRSFRKYAKTHKKNFKARSMRGGIRL; listed as Escherichia sp.)”, for which the MIC was 8 µg/mL in experiment [2]; 2 µg/mL in experiment [3]; 2 µg/mL in experiment [4]; 8 µg/mL in experiment [5]; 1 Tg/mL in experiment [6]; 8 µg/mL in experiment [7]. The same molecule yielded an MIC in experiment [8] of 2 µg/mL.

As to “Fen7875: SEQ ID NO: 65, Gokushovirinae Fen7875_21 (MKPLKRKPVQKARSAAKFRRNVSTVKAANMAVKPMRGGWRF)”, the MIC in experiment [2] came out at 8 µg/mL; in experiment [3], 16 µg/mL; in experiment [4], 32 µg/mL; in experiment [5], 16 µg/mL; in experiment [6], 2 Tg/mL; in experiment [7], 4 µg/mL. Further, the MIC in experiment [8] came to 8 µg/mL.

On to “Gkh1: SEQ ID NO: 13, Marine gokushovirus (MRRPRKMNYKKSKRMFSRTAARTHRKNSLRGSRPMRGGIRL; listed as Marine gokushovirus)”, for which the MIC was found to be 4 µg/mL in experiment [2]; 8 µg/mL in experiment [3]; 2 µg/mL in experiment [4]; 4 µg/mL in experiment [5]; 4 Tg/mL in experiment [6]; 8 µg/mL in experiment [7]. For the same molecule, the MIC in experiment [8] was found to be 1 µg/mL.

As for “HH3930: SEQ ID NO: 64, Richelia intracellularis HH01 (MRPVKRSRVNKARSAGKFRKQVGKTKMANLRSNPMRGGWRL)”, the MIC in experiment [2] turned out to be 16 µg/mL; in experiment [3] it was 16 µg/mL; in experiment [4] it was 32 µg/mL; in experiment [5], 16 µg/mL; in experiment [6], 4 Tg/mL; in experiment [7] it was 4 µg/mL. Besides, the MIC in experiment [8] was 8 µg/mL.

For “Spi1: SEQ ID NO: 25, Spiroplasma virus SpV4 Orf9 (MAYRGFKTSRVVKHRVRRRWFNHRRRYR; Spiroplasma virus SpV4)”, the MIC was 4 µg/mL in experiment [2]; 2 µg/mL in experiment [3]; 0.5 µg/mL in experiment [4]; 16 µg/mL in experiment [5]; over 64 Tg/mL in experiment [6]; 16 µg/mL in experiment [7]. In experiment [8], this molecule returned an MIC of 8 µg/mL.

Take “Spi2-M1: Modified variant of Spi2, SEQ ID NO: 99 (M[dR][dR][dK]V[dK]NT[dK][dR]HQW[dR]LTHSA[dR]SI[dK][dR]ANIMPSNP[dR]GG[dR][dR])”: the MIC is over 64 µg/mL in experiment [2]; 16 µg/mL in experiment [3]; 4 µg/mL in experiment [4]; 1 µg/mL in experiment [5]; over 64 Tg/mL in experiment [6]; 8 µg/mL in experiment [7]. In experiment [8], the MIC amounted to 4 µg/mL.
